In one data set the test system is Mouse 6-Hz test. The experiment in a line: 6-Hz seizure test, mouse. Type of data set: in vivo. Conditions: at 100 mg/kg.
The test system of a further data set is rat hippocampal cultures. The experiment in a line: Neuroprotection from acute glutamate toxicity, CFDA neuronal viability assay. Type of data set: cell-based. Conditions: initial testing of the core compound; assay not specified.
For another data set, the system named is Mouse scPTZ. The experiment in a line: Subcutaneous pentylenetetrazol. The data set is classed as in vivo.
In the next data set the test system is Mouse MES. The experiment in a line: Maximal electroshock test. The data set is classed as in vivo. Conditions: at 100 mg/kg. For orientation: Protection in the maximal electroshock model is a classic sign of anticonvulsant action.
In a further data set the test system is Rat MES. The experiment in a line: Maximal electroshock test. Conditions: at 30 mg/kg. Type of data set: in vivo.
Another data set concerns Caco-2 cells. The experiment in a line: Caco-2 bidirectional permeability assay. Type of data set: in vitro ADME, human. (Passage across Caco-2 layers is used to estimate intestinal permeability.)
Data set [1] can be described thus: Caco-2 bidirectional permeability assay. As to conditions: human. Type of data set: in vitro ADME, human.

Bounds are passed on as bounds.

Regarding `NS(=O)(=O)NCC(O)c1ccccc1F` (stereo not shown) [AND-171, 2-(2-Fluorophenyl)-2-hydroxyethylsulfamide], the “Mouse 6-Hz test (i.p.), animals protected/tested” value with Mouse 6-Hz test is given as 1/4 at 100 mg/kg. The compound further registered a potency for neuroprotection in the data set with rat hippocampal cultures of 30 to 100 nM. Also, in the data set on Mouse scPTZ (PTZ 85 mg/kg s.c.), the “Mouse scPTZ (s.c. EC50)” value was greater than 300 mg/kg. Moreover, the “activity in the mouse pentylenetetrazol model” value in the data set with Mouse scPTZ (at 300 mg/kg i.p.) is “no demonstrated activity”. In addition, the “Mouse MES (i.p.), animals protected/tested” value in the data set with Mouse MES is on record as 1/3 at 100 mg/kg. In the data set on Rat MES, the “Rat MES (oral), animals protected/tested” value is recorded as 1/4 at 30 mg/kg.
In the case of `C[C@H]1O[C@@H](O[C@H]2[C@@H](O)C[C@H](O[C@H]3[C@@H](O)C[C@H](O[C@H]4CC[C@@]5(C)[C@H](CC[C@@H]6[C@@H]5C[C@@H](O)[C@]5(C)[C@@H](C7=CC(=O)OC7)CC[C@]65O)C4)O[C@@H]3C)O[C@@H]2C)C[C@H](O)[C@@H]1O` [Digoxin control, Digoxin], in the data set on Caco-2 cells, the Permeability classification result is given as “Low” and the Significant efflux entry was “Yes”. For the same compound, in data set [1], the Papp A→B – broadly, how fast a substance crosses the layer from the apical side – at 5 µM worked out at 0.62 ×10⁻⁶ cm/s; the Papp B→A (as a rule, how fast a substance crosses the layer from the basolateral side) at 5 µM is 12.5 ×10⁻⁶ cm/s; the efflux ratio (as a rule, a quotient of directional permeabilities that is used to spot active efflux) at 5 µM turned out to be 20.2.
In the case of `CC(C)NCC(O)COc1cccc2ccccc12` (stereo not shown) [Propranolol control, Propranolol], the Permeability classification result in the data set with Caco-2 cells is listed as “High”. The compound also gave a Papp A→B at 5 µM in data set [1] of 17.1 ×10⁻⁶ cm/s.
